Measured values reported in ChEMBL document CHEMBL1201862, “PubChem BioAssay data set” (2004).
Calls of active or inactive are those of the source.

Columns and labels:
Melanocortin receptor 4 = Melanocortin receptor 4 (Homo sapiens, UniProt P32245); assay: inhibitors of MC4R cAMP signaling – cell-based, TR-FRET, biased antagonists, dose response (AID 602298); type: functional;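 further: antagonist potency against agonist-stimulated cAMP production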
[1] = cAMP pathway inhibition in counterscreen cell line – TR-FRET cAMP detection, counter-screen for MC4R biased antagonist project, dose response (AID 602305); type: functional, cell-based;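 further: U2OS cells stimulated with forskolin near its EC80 as the cAMP inducer; potency is for inhibition of forskolin-stimulated cAMP signaling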
[2] = target: T1, High affinity choline transporter 1 (Homo sapiens, UniProt Q9GZV3); assay: human choline transporter potentiators, potency – cell-based, 10-point CRC, membrane potential dye, dose response (AID 602376); type: functional
T1 sequence (Q9GZV3 whole entry): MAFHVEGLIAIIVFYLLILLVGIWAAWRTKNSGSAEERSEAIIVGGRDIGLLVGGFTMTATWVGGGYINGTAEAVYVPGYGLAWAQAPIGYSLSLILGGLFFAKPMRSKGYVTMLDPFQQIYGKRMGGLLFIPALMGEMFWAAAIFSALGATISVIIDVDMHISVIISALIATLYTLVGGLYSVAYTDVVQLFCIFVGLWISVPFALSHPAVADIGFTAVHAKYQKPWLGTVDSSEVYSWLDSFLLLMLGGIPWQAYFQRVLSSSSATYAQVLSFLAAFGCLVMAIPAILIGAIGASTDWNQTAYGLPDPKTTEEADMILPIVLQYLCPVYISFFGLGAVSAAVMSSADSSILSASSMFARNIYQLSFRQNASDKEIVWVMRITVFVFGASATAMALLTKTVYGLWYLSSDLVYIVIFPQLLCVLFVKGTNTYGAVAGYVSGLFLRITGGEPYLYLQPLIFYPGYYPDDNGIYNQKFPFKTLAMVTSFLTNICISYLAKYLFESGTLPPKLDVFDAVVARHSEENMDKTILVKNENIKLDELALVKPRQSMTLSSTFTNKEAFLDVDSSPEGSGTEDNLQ

Ephrin type-A receptor 4 = Ephrin type-A receptor 4 (Mus musculus, UniProt Q03137); assay: EphA4 ligand-binding antagonists – biochemical, colorimetric, mouse EphA4, primary screen (AID 689); type: functional
HeLa = assay: viability loss in HeLa cells – cell-based, 24 h, cherry-picked samples, cytotoxicity control, dose response (AID 504726); type: functional; conditions: Homo sapiens
ORF 73 = ORF 73 (Human herpesvirus 8, UniProt O40947); assay: KSHV LANA DNA-binding disruption – biochemical, fluorescence polarization, cherry-picked samples, dose response (AID 504725); design: species or system Human gammaherpesvirus 8;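 further: fluorescence polarization of a labeled DNA duplex reporting LANA DNA binding; potency is for inhibitors that block LANA binding to the DNA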
Troponin, cardiac muscle = Troponin, cardiac muscle (Homo sapiens, UniProt P19429+P45379+P63316); assay: Fluorescence-based biochemical high throughput dose response assay for activators of the calcium sensitivity of cardiac Regulated Thin Filaments (RTF). [Related pubchem assays (depositor defined):AID493008, AID493018, AID504382, AID504383]; type: protein-complex assay
CHO = CHO cell viability loss, potency – luminescence, cytotoxicity control for TLR9-MyD88 binding inhibitor project, dose response (AID 588339); type: functional, cell-based, hamster; conditions: Cricetulus griseus;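 further: CHO cells stably coexpressing TLR9 and MyD88 fusions from primary screen; compound exposure lasted 48 hours before viability readout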
[3] = target: T2, Endoribonuclease toxin MazF (Escherichia coli K-12, UniProt P0AE70); assay: activation of MazEF endoribonuclease cleavage – biochemical, fluorescence, single-stranded RNA substrate, uHTS hits, dose response (AID 588481); type: functional
T2 sequence (P0AE70 whole entry): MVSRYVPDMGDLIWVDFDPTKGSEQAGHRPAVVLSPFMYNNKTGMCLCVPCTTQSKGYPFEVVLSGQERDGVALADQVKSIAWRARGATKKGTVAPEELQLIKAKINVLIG

Keap1/Nrf2 = Keap1/Nrf2 (Homo sapiens, UniProt Q14145); assay: disruptors of Keap1 binding to Nrf2 peptide – biochemical, fluorescence polarization, cherry-picked samples, dose response (AID 588683)
Beta Lactamase = Beta Lactamase (Pseudomonas aeruginosa, UniProt Q932Y6); assay: BLA reporter interference, concentration series – BLA reporter cells, FRET fluorescence, artefact control for TLR9-MyD88 binding inhibitor project, dose response (AID 588341); type: cell-based;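 further: cell based assay in CHO-K1 cells stably expressing beta-lactamase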
[4] = target: T2, Endoribonuclease toxin MazF; assay: substrate-only fluorescence increase artefacts – biochemical, single-stranded RNase substrate, counter-screen for MazEF activator project, dose response (AID 588502); type: functional
[5] = target: T3, Corticotropin-releasing factor receptor 2/Corticotropin-releasing factor-binding protein (Homo sapiens, UniProt P24387+Q13324); assay: activators of CRF receptor 2 with binding protein – uHTS hits, confirmation (AID 602473); type: functional; conditions: read-out: EC50_Mean
T3 sequence (Q13324 whole entry): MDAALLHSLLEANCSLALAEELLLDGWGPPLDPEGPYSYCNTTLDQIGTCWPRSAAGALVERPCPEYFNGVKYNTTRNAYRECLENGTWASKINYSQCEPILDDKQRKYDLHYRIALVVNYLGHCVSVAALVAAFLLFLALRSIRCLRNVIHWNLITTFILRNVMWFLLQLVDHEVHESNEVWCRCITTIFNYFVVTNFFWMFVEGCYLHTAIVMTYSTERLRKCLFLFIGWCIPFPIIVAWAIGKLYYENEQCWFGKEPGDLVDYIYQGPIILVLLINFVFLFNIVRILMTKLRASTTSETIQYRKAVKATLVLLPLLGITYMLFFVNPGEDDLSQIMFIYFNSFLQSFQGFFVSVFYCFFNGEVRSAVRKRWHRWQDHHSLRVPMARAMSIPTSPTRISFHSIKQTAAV
T3 sequence (P24387 whole entry): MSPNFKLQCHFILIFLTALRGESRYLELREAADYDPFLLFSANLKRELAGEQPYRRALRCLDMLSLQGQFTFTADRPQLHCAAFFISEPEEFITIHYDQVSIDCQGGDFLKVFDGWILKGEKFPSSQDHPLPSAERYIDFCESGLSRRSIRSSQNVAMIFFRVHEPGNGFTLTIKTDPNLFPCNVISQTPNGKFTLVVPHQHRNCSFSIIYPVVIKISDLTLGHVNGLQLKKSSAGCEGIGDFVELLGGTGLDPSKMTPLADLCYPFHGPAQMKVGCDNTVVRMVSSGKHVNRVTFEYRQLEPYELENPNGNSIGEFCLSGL

Erythrocyte = assay: FACS-based assay to assess parasite growth inhibition 96 hr Measured in Cell-Based System Using Flow Cytometry - 2126-05_Inhibitor_Dose_DryPowder_Activity. [Related pubchem assays (depositor defined):AID488774]; type: functional; conditions: Homo sapiens
[6] = FACS-based assay to assess parasite growth inhibition 48 hr Measured in Cell-Based System Using Flow Cytometry - 2126-03_Inhibitor_Dose_DryPowder_Activity. [Related pubchem assays (depositor defined):AID488774]; type: functional; conditions: Homo sapiens
[7] = A cell-based HTS for delayed death inhibitors of the malarial parasite plastid Measured in Microorganism System Using Plate Reader - 2126-02_Inhibitor_Dose_DryPowder_Activity.; type: functional, organism-based
[8] = A cell-based HTS for delayed death inhibitors of the malarial parasite plastid Measured in Microorganism System Using Plate Reader - 2126-01_Inhibitor_Dose_DryPowder_Activity.; type: functional, organism-based
[9] = target: Hepatocyte growth factor receptor (Homo sapiens, UniProt P08581); type: functional;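 further: kinase panel profiling across the kinome, with MET as the panel member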
[10] = target: Serine/threonine-protein kinase Chk1 (Homo sapiens, UniProt O14757); type: functional;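 further: measured as one member of a kinome-wide kinase profiling panel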
[11] = target: cAMP-dependent protein kinase catalytic subunit PRKX (Homo sapiens, UniProt P51817); type: functional
[12] = target: Leucine-rich repeat serine/threonine-protein kinase 2 (Homo sapiens, UniProt Q5S007); type: functional;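 further: value from a broad kinome-wide panel profiling study in which LRRK2 was one of the kinases tested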
[13] = target: Cyclin-dependent kinase 9 (Homo sapiens, UniProt P50750); type: functional;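 further: value from the CDK9 entry of a kinome-spanning kinase panel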
[14] = target: Dual specificity protein kinase CLK4 (Homo sapiens, UniProt Q9HAZ1); type: functional
[15] = target: Leukocyte tyrosine kinase receptor (Homo sapiens, UniProt P29376); assay: Navigating the Kinome. Panel member name: LTK; type: functional
Ion channel NompC = Ion channel NompC (Danio rerio, UniProt Q7T1G6); assay: Dose response cell-based high-throughput screening assay for agonists of the transient receptor potential channel N1 (TRPN1). [Related pubchem assays (depositor defined):AID1424, AID1448]; type: functional
Mucolipin-3 = target: T4, Mucolipin-3 (Homo sapiens, UniProt Q8TDD5); assay: Fluorescence counterscreen assay for […] agonists: dose response cell-based high-throughput screening assay to identify agonists of the transient receptor potential channel ML3 (TRPML3). [Related pubchem assays: 1424, 1448 ]; type: functional
T4 sequence (Q8TDD5 whole entry): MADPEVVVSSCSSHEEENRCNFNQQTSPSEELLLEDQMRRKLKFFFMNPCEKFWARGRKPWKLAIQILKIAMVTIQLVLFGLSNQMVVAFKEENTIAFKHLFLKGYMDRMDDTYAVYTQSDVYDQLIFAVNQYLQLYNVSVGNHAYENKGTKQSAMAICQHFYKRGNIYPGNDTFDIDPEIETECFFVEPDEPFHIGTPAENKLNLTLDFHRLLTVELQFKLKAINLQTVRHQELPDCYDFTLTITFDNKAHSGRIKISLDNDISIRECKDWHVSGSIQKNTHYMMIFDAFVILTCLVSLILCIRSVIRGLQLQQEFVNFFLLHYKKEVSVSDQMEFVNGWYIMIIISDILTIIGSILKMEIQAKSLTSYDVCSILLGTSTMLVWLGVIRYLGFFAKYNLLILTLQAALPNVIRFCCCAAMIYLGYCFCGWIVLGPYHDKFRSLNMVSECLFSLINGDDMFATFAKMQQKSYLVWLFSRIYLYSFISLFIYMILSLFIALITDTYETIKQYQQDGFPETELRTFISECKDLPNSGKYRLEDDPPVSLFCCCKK

[16] = target: Multidrug resistance protein CDR2 (Candida albicans (strain SC5314 / ATCC MYA-2876) (Yeast), UniProt P78595); assay: inhibition of Nile Red efflux via Candida CDR2 – S. cerevisiae AD1-8u, singleplex, Cherry Pick1 hits, dose response (AID 588604); type: functional
Aurora kinase A = Aurora kinase A (Homo sapiens, UniProt O14965); type: functional;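 further: value from the Navigating the Kinome kinase panel profiling, panel entry STK6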
Aurora kinase B = Aurora kinase B (Homo sapiens, UniProt Q96GD4); type: functional
[17] = target: Neuropeptides B/W receptor type 1 (Homo sapiens, UniProt P48145); assay: human NPBW1 receptor blockade, IC50 – cell-based, fluorescence, dose response, set 5, late-stage follow-up (AID 588566); type: functional
[18] = target: Melanin-concentrating hormone receptor 1 (Homo sapiens, UniProt Q99705); assay: Late-stage fluorescence-based counterscreen for antagonists of the G-protein coupled receptor 7 (GPR7): cell-based dose response assay to identify antagonists of the melanin-concentrating hormone receptor 1 (MCHR1) Set 5.; type: functional
[19] = THP-1 cell cytotoxicity, cytotoxicity control, set 4 (AID 504911); type: functional; conditions: Mycobacterium tuberculosis
[20] = THP-1 cell cytotoxicity, dose response, cytotoxicity control, set 3 (AID 504852); type: functional; conditions: Mycobacterium tuberculosis
[21] = Vero cell cytotoxicity, dose response, cytotoxicity control for M. tuberculosis growth inhibitor project, Vero cells, purified and synthesized compounds, set 4 (AID 504854); type: functional; conditions: Mycobacterium tuberculosis
[22] = target: Tyrosine-protein kinase Lck (Homo sapiens, UniProt P06239); type: functional;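 further: lck was assayed as one member of a kinase panel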
[23] = target: Vascular endothelial growth factor receptor 2 (Homo sapiens, UniProt P35968); type: functional
[24] = target: Glycogen synthase kinase-3 beta (Homo sapiens, UniProt P49841); assay: inhibition of human GSK3B activity – biochemical, microfluidics, dry powder samples, set 2, dose response (AID 623989); type: functional
[25] = target: Cell division cycle 7-related protein kinase (Homo sapiens, UniProt O00311); type: functional;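 further: value obtained from a kinome-wide kinase panel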
[26] = target: G protein-coupled receptor kinase 5 (Homo sapiens, UniProt P34947); assay: Navigating the Kinome. Panel member name: GPRK5; type: functional

Sequence of Neuropeptides B/W receptor type 1 (P48145 whole entry): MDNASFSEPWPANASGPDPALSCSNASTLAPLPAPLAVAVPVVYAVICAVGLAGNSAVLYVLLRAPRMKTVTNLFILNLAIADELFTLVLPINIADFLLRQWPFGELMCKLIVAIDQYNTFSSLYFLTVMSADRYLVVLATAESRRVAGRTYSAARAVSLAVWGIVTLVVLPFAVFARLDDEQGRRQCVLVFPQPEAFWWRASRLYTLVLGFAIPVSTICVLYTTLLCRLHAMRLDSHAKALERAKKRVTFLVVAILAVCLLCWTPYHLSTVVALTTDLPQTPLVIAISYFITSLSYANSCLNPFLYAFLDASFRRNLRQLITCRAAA
Sequence of Vascular endothelial growth factor receptor 2 (P35968 whole entry): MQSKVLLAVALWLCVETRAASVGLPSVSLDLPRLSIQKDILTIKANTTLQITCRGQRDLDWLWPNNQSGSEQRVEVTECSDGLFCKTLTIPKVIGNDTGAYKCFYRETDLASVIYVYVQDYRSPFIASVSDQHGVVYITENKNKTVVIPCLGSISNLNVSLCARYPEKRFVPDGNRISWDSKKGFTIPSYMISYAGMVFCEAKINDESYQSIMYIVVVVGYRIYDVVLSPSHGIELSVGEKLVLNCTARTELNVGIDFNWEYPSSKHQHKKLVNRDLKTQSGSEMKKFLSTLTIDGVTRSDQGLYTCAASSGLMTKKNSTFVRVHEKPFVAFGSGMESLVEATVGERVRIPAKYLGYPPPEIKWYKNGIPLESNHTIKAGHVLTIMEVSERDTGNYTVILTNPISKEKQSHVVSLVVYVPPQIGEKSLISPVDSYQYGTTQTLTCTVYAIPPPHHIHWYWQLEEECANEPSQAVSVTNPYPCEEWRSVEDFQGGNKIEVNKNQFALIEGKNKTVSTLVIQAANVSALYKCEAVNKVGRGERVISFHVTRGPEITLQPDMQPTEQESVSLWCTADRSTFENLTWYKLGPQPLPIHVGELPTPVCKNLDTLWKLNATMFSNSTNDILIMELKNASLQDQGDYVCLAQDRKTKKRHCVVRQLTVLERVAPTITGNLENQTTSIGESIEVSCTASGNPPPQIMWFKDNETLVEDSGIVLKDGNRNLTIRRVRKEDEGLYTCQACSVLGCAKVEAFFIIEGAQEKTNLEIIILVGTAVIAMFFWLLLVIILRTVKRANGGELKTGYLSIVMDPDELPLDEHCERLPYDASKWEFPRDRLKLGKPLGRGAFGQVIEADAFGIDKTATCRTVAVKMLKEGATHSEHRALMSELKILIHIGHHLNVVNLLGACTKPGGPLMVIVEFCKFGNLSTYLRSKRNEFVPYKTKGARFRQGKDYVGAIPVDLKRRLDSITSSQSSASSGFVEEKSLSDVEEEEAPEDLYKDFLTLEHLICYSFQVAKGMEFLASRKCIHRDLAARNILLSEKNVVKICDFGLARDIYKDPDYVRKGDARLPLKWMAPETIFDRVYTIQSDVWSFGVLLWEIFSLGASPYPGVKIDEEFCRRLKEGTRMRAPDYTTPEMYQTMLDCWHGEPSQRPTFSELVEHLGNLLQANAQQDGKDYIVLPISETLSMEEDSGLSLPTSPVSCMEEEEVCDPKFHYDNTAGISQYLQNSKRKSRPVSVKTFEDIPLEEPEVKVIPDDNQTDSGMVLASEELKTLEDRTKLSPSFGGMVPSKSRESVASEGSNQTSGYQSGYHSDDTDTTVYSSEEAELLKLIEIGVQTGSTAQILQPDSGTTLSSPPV
Sequence of Glycogen synthase kinase-3 beta (P49841 whole entry): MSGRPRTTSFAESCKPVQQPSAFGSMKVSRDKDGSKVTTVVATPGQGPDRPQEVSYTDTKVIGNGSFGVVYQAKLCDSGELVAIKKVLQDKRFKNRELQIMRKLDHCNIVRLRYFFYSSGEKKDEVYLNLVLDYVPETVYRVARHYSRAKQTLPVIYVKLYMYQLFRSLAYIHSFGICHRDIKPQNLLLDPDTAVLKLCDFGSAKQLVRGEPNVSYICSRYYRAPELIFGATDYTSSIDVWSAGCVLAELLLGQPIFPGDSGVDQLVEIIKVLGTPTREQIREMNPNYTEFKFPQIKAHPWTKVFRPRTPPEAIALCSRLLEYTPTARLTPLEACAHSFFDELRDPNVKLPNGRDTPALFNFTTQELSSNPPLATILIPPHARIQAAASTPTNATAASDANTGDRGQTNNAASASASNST
Sequence of Ion channel NompC (Q7T1G6 whole entry): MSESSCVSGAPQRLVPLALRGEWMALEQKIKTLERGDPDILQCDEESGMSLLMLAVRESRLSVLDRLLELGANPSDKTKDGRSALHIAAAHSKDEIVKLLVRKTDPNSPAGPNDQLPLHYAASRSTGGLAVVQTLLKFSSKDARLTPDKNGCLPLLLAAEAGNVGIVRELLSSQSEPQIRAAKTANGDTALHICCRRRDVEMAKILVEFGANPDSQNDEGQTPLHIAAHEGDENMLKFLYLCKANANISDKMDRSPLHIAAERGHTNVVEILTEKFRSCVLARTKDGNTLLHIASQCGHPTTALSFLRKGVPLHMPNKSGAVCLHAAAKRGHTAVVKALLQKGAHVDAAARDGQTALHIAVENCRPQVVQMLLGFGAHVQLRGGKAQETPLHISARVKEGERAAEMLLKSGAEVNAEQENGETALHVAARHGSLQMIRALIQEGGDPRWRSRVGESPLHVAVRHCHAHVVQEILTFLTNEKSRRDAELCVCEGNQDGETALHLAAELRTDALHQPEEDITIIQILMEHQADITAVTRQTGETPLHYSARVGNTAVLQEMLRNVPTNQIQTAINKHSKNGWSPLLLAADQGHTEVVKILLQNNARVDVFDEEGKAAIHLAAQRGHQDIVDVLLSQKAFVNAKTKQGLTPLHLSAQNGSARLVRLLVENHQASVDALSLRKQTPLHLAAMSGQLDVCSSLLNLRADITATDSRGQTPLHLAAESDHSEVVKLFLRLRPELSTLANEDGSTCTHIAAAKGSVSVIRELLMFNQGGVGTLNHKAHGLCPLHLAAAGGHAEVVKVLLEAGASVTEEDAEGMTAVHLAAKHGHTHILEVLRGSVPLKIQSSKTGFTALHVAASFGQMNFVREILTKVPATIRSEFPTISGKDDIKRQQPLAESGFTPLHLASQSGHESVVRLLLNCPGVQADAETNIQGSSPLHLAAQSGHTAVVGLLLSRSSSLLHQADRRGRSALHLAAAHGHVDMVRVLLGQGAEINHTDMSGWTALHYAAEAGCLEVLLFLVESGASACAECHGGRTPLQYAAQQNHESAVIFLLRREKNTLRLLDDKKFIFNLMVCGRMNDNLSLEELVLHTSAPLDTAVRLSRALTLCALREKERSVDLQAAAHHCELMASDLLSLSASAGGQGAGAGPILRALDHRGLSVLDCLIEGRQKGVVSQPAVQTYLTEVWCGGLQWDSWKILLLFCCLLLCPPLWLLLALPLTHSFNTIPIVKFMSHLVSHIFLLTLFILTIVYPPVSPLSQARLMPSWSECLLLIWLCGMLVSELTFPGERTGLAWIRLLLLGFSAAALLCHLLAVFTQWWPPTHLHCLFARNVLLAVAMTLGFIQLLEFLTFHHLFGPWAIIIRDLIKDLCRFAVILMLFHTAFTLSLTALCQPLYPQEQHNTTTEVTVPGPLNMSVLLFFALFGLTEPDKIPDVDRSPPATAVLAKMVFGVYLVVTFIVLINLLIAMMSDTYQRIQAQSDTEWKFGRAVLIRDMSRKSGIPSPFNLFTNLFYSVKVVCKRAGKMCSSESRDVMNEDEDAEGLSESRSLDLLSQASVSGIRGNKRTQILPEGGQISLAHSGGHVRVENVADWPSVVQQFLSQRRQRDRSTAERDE
Sequence of Serine/threonine-protein kinase Chk1 (O14757 whole entry): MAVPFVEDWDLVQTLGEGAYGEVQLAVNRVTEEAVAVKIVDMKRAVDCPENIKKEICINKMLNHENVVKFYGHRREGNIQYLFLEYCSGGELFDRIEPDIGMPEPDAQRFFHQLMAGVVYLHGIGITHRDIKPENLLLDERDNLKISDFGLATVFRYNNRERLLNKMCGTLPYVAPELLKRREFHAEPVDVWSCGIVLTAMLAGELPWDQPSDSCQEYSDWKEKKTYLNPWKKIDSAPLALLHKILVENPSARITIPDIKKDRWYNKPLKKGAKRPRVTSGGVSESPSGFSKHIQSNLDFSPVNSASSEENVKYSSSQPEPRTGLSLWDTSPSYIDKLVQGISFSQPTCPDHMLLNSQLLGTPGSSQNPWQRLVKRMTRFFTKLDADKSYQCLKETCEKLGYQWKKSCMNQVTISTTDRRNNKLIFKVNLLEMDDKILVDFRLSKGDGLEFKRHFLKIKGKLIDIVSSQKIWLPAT
Sequence of Tyrosine-protein kinase Lck (P06239 whole entry): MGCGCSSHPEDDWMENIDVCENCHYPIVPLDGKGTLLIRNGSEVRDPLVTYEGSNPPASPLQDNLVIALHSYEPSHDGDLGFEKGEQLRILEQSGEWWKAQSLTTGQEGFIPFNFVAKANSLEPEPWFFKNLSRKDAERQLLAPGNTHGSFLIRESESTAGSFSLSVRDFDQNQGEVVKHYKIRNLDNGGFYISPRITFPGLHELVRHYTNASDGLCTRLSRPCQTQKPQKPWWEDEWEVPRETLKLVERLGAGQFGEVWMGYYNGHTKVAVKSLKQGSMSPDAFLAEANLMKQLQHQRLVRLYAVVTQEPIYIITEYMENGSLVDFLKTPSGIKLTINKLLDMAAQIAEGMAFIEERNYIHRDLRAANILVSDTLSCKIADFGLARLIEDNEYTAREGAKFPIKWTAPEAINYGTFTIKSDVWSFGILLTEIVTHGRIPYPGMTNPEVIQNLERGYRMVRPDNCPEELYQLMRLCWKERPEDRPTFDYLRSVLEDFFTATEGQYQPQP
Sequence of Melanin-concentrating hormone receptor 1 (Q99705 whole entry): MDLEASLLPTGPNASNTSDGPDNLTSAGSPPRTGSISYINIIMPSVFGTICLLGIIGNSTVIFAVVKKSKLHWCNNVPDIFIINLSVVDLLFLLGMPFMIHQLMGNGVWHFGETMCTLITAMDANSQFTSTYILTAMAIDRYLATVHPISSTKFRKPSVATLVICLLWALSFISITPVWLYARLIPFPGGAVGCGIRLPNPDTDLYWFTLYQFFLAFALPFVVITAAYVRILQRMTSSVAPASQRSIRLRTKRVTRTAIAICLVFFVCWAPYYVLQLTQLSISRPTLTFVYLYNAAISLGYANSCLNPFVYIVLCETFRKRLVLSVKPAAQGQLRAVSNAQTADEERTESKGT

## CN(C(=O)COC(=O)CNC(=O)c1ccc(Cl)cc1Cl)c1ccccc1
Melanocortin receptor 4
  IC50: > 64.6 µM (inactive)
[1]
  IC50: > 64.6 µM (inactive)

## CC(C)COP(=O)(OCC(C)C)C(Nc1ccccc1)c1ccc(F)cc1 (stereo not given)
[2]
  EC50: 12.2 µM (active)

## CCn1nc(-c2ccccc2)c2nc3ccccc3nc21
Ephrin type-A receptor 4
  IC50: 5.45 µM (active)
HeLa
  AC50: 96.5 µM (active)
ORF 73
  AC50: 30.9 µM (active)
Troponin, cardiac muscle
  EC50: 5.55 µM (active)
CHO
  IC50: > 49.7 µM (inactive)
[3]
  EC50: > 99 µM (inactive)
Keap1/Nrf2
  AC50: 39.5 µM (active)
Beta Lactamase
  IC50: 5.36 µM (active)
[4]
  EC50: 84 µM (inactive)
[5]
  EC50: 6.66 µM (active)

## Cc1noc(C)c1NC(=O)Nc1ccc2c(c1)C(=O)N([C@@H](C)CO)C[C@@H](C)[C@H](CN(C)S(=O)(=O)c1ccc(F)cc1)OCCCC[C@H](C)O2
Erythrocyte
  AC50: 0.697 µM (active)
[6]
  AC50: 0.609 µM (active)
[7]
  AC50: 0.57 µM (active)
[8]
  AC50: 0.697 µM (active)

## Cc1csc2nc(N)nn12
[9]
  Ki: 79.4 µM (active)
[10]
  Ki: 31.6 µM (active)
[11]
  Ki: 79.4 µM (active)
[12]
  Ki: 39.8 µM (active)
[13]
  Ki: 50.1 µM (active)
[14]
  Ki: 31.6 µM (active)
[15]
  Ki: 79.4 µM (active)

## C=CCn1c(=O)[nH]c2nc3cc(/N=C/N(C)C)c(C)cc3nc2c1=O
Ion channel NompC
  EC50: 3.27 µM (active)
Mucolipin-3
  EC50: 5.89 µM (active)
Troponin, cardiac muscle
  EC50: 1.86 µM (active)
[16]
  EC50: 1.62 µM (active)

## Cc1ccc(-c2nc3ccc(Br)cc3c(C(=O)O)c2CC(=O)O)cc1C
Aurora kinase A
  Ki: 0.0631 µM (active)
Aurora kinase B
  Ki: 0.126 µM (active)

## CCOc1ccc(Oc2c(Cl)c(N3CCCCC3)nn(Cc3cccc4ccccc34)c2=O)cc1
[17]
  IC50: > 20 µM (inactive)
[18]
  IC50: > 20 µM (inactive)

## CNC(=O)CSc1nc2ccccc2c(=O)[nH]1
[19]
  CC50: > 100 µM (active)
[20]
  CC50: > 100 µM (active)
[21]
  CC50: > 100 µM (active)

## O=C(Nc1cccc(-c2nc3sccn3c2-c2ccnc(Nc3ccccc3Cl)n2)c1)c1ccccc1
[22]
  Ki: 3.98 µM (active)
[23]
  Ki: 0.794 µM (active)

## Cc1ccc(S(=O)(=O)N2CCN(CC(=O)N/N=C/c3ccccn3)CC2)cc1
[24]
  AC50: 13.7 µM (active)

## CC(C)(C)c1cnc(CSc2cnc(NC(=O)C3CCNCC3)s2)o1 [BMS-387032]
[25]
  Ki: > 3.98 µM (inactive)
[26]
  Ki: > 3.98 µM (inactive)
